Test results: patent US10633345B2, “Human plasma kallikrein inhibitors” (BioCryst Pharmaceuticals, Inc., priority 2014, dated 2020)

Key:
[1] = target: human plasma kallikrein (Homo sapiens (Human), UniProt P03952); assay: Plasma kallikrein activity assay (chromogenic substrate S2302); assay type: biochemical; conditions: 2 nM kallikrein, 80 μM S2302, 30° C., pH 7.8; Cheng-Prusoff; values given as bins
Protocol: Plasma Kallikrein Activity Assay.
The effect of compounds of the invention on human plasma kallikrein activity was determined using the chromogenic substrates (DiaPharma Group, Inc., West Chester, Ohio, USA). In these experiments, 2 nM kallikrein (Enzyme Research Laboratories, South Bend, Ind., USA) was incubated with 80 μM S2302 (H-D-Pro-Phe-Arg-p-nitroaniline) in the absence or presence of increasing concentrations of compounds of the invention in a final volume of 200 μL Tris-HCl buffer (200 mM NaCl; 2.5 mM CaCl2; 50 mM Tris-HCl, pH 7.8).
Data were analyzed using SigmaPlot software (Systat Software, Inc., San Jose, Calif., USA) (Four Parameter Logistic Curve).

[2] = system: patients with hereditary angioedema (HAE); conditions: cited from earlier work
[3] = system: mouse model of middle cerebral artery occlusion (MCAO); conditions: cited from earlier work

human plasma kallikrein, sequence (P03952 whole entry, looked up): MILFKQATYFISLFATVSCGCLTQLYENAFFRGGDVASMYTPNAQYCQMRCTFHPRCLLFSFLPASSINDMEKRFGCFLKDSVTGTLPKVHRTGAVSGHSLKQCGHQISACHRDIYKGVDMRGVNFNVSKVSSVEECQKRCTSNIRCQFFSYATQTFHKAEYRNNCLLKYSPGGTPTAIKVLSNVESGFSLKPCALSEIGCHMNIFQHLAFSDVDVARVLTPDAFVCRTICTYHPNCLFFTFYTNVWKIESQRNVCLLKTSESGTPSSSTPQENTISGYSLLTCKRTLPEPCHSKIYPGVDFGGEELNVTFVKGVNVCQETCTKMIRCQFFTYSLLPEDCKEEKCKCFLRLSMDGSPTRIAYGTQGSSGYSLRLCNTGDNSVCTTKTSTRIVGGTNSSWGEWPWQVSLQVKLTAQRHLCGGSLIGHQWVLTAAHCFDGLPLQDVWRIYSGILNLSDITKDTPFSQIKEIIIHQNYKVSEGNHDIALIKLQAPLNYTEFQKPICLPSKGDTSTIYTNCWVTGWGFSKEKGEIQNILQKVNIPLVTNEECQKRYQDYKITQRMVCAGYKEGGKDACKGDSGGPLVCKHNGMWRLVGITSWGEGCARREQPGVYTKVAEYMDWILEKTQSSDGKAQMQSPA
human plasma kallikrein, sequence (P03952 whole entry partner, looked up): as the sequence (P03952 whole entry, looked up) above

Molecule: N#Cc1cccc(C(N)(CCC2CC2)c2ccc(F)c(NC(=O)c3cc(C(F)(F)F)nn3-c3cccc(C(N)=O)c3)c2)c1 (single isomer, unassigned; (-)) [Compound 267c, (−)-N-(5-(1-amino-1-(3-cyanophenyl)-3-cyclopropylpropyl)-2-fluorophenyl)-1-(3-carbamoylphenyl)-3-(trifluoromethyl)-1H-pyrazole-5-carboxamide]
- Ki [1]: > 100 nM

Molecule: ecallantide [DX-88]
- edema in patients with hereditary angioedema (HAE) [2]: alleviates edema

B1: C1-inhibitor: "a physiological inhibitor (C1-inhibitor)" (protein, UniProt P05155 23-500, looked up)
Plasma protease C1 inhibitor: NPNATSSSSQDPESLQDRGEGKVATTVISKMLFVEPILEVSSLPTTNSTTNSATKITANTTDEPTTQPTTEPTTQPTIQPTQPTTQLPTDSPTQPTTGSFCPGPVTLCSDLESHSTEAVLGDALVDFSLKLYHAFSAMKKVETNMAFSPFSIASLLTQVLLGAGENTKTNLESILSYPKDFTCVHQALKGFTTKGVTSVSQIFHSPDLAIRDTFVNASRTLYSSSPRVLSNNSDANLELINTWVAKNTNNKISRLLDSLPSDTRLVLLNAIYLSAKWKTTFDPKKTRMEPFHFKNSVIKVPMMNSKKYPVAHFIDQTLKAKVGQLQLSHNLSLVILVPQNLKHRLEDMEQALSPSVFKAIMEKLEMSKFQPTLLTLPRIKVTTSQDMLSIMEKLEFFDFSYDLNLCGLTEDPDLQVSAMQHQTVLELTETGVEAAAASAISVARTLLVFEVQQPFLFVLWDQQHKFPVFMGRVYDPRA
- infarct size [3]: reduced
